This assay has as its system P. falciparum 3D7 ACP-GFP apicoplast imaging, 4 days. Nature of the assay: apicoplast disruption in P. falciparum parasites, late-stage follow-up, mechanism study for antimalarial project, imaging, 3D7 ACP-GFP strain (AID 504661). To be noted: active compounds read high.

Each structure is given as a SMILES string. Calls of active or inactive are those of the source. The rule behind the calls is not given here.

Consider `COCCOC(=O)N(C)C[C@@H]1OCCCC[C@H](C)Oc2ccc(NC(=O)Nc3ccccc3)cc2C(=O)N([C@@H](C)CO)C[C@H]1C`, for which the apicoplast disruption (at 50000 nM) was 13.7% (inactive).
`COc1ccc(COC[C@H](C)N2C[C@@H](C)[C@H](CN(C)S(=O)(=O)c3ccc(F)cc3)OCCCC[C@H](C)Oc3ccc(NC(=O)Nc4ccccc4)cc3C2=O)cc1`: the apicoplast disruption (at 3.2 nM) is 16.1% (inactive).
Take `Cc1noc(C)c1NC(=O)Nc1ccc2c(c1)C(=O)N([C@@H](C)CO)C[C@@H](C)[C@H](CN(C)S(=O)(=O)c1ccc(F)cc1)OCCCC[C@H](C)O2`: the apicoplast disruption (at 2000 nM) is 21% (inactive).
On to `C[C@@H]1CN([C@@H](C)COC(=O)C(C)(C)C)C(=O)c2cc(NC(=O)Nc3ccccc3)ccc2O[C@@H](C)CCCCO[C@H]1CN(C)S(=O)(=O)c1ccc(F)cc1`, for which, for the setting “at 16 nM”, the apicoplast disruption was 17.2% (inactive).

These data come from PubChem BioAssay AID504661 (Broad Institute, 2011).
